Laboratory results published in patent US10851062B2, “Substituted heteroaryl compound, composition containing same, and application thereof” (Shenzhen TargetRx, Inc., priority 2016, dated 2020).
Like-named read-outs stand apart in the source and are kept apart here.

Legend:
[1] = Pharmacokinetic evaluation in rats; assay type: in vivo, Sprague-Dawley rats; conditions: rat; for AUC(0-inf) / AUC(0-t) / Tmax / MRT inf / F / half-life / Cmax: male, Sprague-Dawley; for AUC(0-inf) / AUC(0-t) / Tmax / MRT inf / Cmax: plasma; for MRT inf: read-out: MRTINF_pred; for F / half-life: in vivo
Description: 6 male Sprague-Dawley rats (7-8 weeks old, and weighing approximately 210 g) were divided into 2 groups with 3 rats in each group. The rats were intravenously or orally administered a single dose of compound (3 mg/kg intravenously, 10 mg/kg orally) to compare pharmacokinetic differences.
The rats were raised on standard food and water. Fasting was started 16 hours before the test. The drug was dissolved with PEG400 and dimethyl sulfoxide. The blood samples were collected from eyelids at the time points of 0.083 hours, 0.25 hours, 0.5 hours, 1 hour, 2 hours, 4 hours, 6 hours, 8 hours, 12 hours, and 24 hours after administration.
Rats were briefly anesthetized after inhalation of diethyl ether and 300 μL of blood sample was collected from the eyelids into test tubes. There was 30 μL of 1% heparin salt solution in the test tube. Tubes were dried at 60° C. overnight before use. After the blood sample was collected at a later time point, the rats were sacrificed after ether anesthesia.
Immediately after the collection of the blood sample, the test tube was gently inverted at least 5 times to ensure sufficient mixing and then placed on ice. The blood sample was centrifuged at 5000 rpm at 4° C. for 5 minutes to separate the plasma from the red blood cells. 100 μL of plasma was aspirated into a clean plastic centrifuge tube with a pipette, marking with the name of the compound and time point. Plasma was stored at −80° C. prior to analysis. The concentration of the compound of the present disclosure in plasma was determined by LC-MS/MS. The pharmacokinetic parameters were calculated based on the blood concentration of each animal at different time points.

[2] = Metabolic stability in rat liver microsomes; assay type: in vitro ADME, SD rat; conditions: rat liver microsomes 0.5 mg/mL, compound 1 μM, NADPH, 37° C.; for microsomal CLint at 1 μM / half-life at 1 μM: Sprague-Dawley, pH 7.4; for half-life at 1 μM: read-out: t1/2 in rat liver microsomes
Description: (§1) Experiments in microsomes: Human liver microsomes: 0.5 mg/mL, Xenotech; Rat liver microsomes: 0.5 mg/mL, Xenotech; Coenzyme (NADPH/NADH): 1 mM, Sigma Life Science; Magnesium chloride: 5 mM, 100 mM phosphate buffer (pH 7.4).
(§2) Preparation of stock solution: Powder of the example compound 1-7 was accurately weighed and dissolved in DMSO to 5 mM. Preparation of phosphate buffer (100 mM, pH7.4): A pre-formulated 0.5M potassium dihydrogen phosphate (150 mL) was mixed with 0.5M dibasic potassium phosphate (700 mL). The pH of the mixture was adjusted to 7.4 with 0.5M dibasic potassium phosphate solution. The mixture was diluted 5-fold with ultrapure water before use, and magnesium chloride was added to obtain a phosphate buffer (100 mM) containing 100 mM potassium phosphate, 3.3 mM magnesium chloride, pH 7.4. A NADPH regeneration system solution (containing 6.5 mM NADP, 16.5 mM G-6-P, 3 U/mL G-6-PD, 3.3 mM magnesium chloride) was prepared and placed on wet ice prior to use. Preparation of stop solution: acetonitrile solution containing 50 ng/mL propranolol hydrochloride and 200 ng/mL tolbutamide (internal standard). 25057.5 μL of phosphate buffer (pH 7.4) was taken into a 50 mL centrifuge tube, to which 812.5 μL human liver microsomes were added, and mixed to obtain a liver microsome dilution solution with a protein concentration of 0.625 mg/mL. 25057.5 μL of phosphate buffer (pH 7.4) was taken into a 50 mL centrifuge tube, to which 812.5 μL SD rat liver microsomes were added, and mixed to obtain a liver microsome dilution solution with a protein concentration of 0.625 mg/mL.
(§3) Incubation of the samples: The stock solution of the respective compound was respectively diluted to 0.25 mM with an aqueous solution containing 70% acetonitrile, and used as a working solution, ready for use. 398 μL of the dilution solution of human liver microsomes or rat liver microsome were added to a 96-well incubation plate (N=2), respectively, and 2 μL of 0.25 mM working solution was added and mixed.
(§4) Metabolic stability assay: 300 μL of pre-chilled stop solution was added to each well of a 96-well deep well plate and placed on ice as a stop plate. The 96 well incubation plate and NADPH regeneration system were placed in a 37° C. water bath box, shaken at 100 rpm and pre-incubated for 5 min. 80 μL of incubation solution was taken out from each well of the incubation plate and added to the stop plate, mixed, and replenished with 20 μL of NADPH regeneration system solution as a 0-min sample. 80 μL of NADPH regeneration system solution was added to each well of the incubation plate to start the reaction and start counting. […] Separately, 100 μL of the reaction solution was taken at 10, 30, and 90 min reaction, respectively, added to a stop plate, and vortexed for 3 minutes to terminate the reaction. The stop plate was centrifuged at 5000×g at 4° C. for 4 min. 100 μL of the supernatant was added to a 96-well plate to which 100 μL of distilled water was previously added, mixed, and analyzed by LC-MS/MS.
(§5) Data analysis: The peak areas of the corresponding compound and internal standard were detected by LC-MS/MS system, and the ratio of the peak area of the compound to the internal standard was calculated. The slope was measured by plotting the natural logarithm of the percent of compound remaining versus time, and t1/2 and CLint were calculated according to the formula, where V/M is equal to 1/protein concentration.

[3] = Metabolic stability in human liver microsomes; assay type: in vitro ADME; conditions: pH 7.4, human liver microsomes 0.5 mg/mL, compound 1 μM, NADPH, 37° C.; for half-life at 1 μM: read-out: t1/2 in human liver microsomes
Description: as §1, §2, §3, §4, §5

Compound: [2H]C([2H])(NC(=O)c1nc(C)c2cc(Oc3ccccc3)ccc2c1O)C(=O)O [Compound 11, N-[(4-hydroxy-1-methyl-7-phenoxy-3-isoquinolinyl)carbonyl]-2,2-d2-glycine]
- AUC(0-inf) ([1]; IV, 3 mg/kg single dose): 51.6 µg·h/mL
- AUC(0-t) ([1]; IV, 3 mg/kg single dose): 51.6 µg·h/mL
- Tmax ([1]; IV, 3 mg/kg single dose): 0.08 h
- MRT inf ([1]; IV, 3 mg/kg single dose): 2.84 h
- AUC(0-inf) ([1]; PO, 10 mg/kg single dose): 261 µg·h/mL
- AUC(0-t) ([1]; PO, 10 mg/kg single dose): 260 µg·h/mL
- Tmax ([1]; PO, 10 mg/kg single dose): 4 h
- MRT inf ([1]; PO, 10 mg/kg single dose): 5.87 h
- F [1]: 151.17%
- half-life ([1]; iv, 3 mg/kg): 2.43 h
- half-life ([1]; po, 10 mg/kg): 2.77 h
- Cmax ([1]; IV, 3 mg/kg single dose): 19000 ng/mL
- Cmax ([1]; PO, 10 mg/kg single dose): 24600 ng/mL
- Vz_pred ([1]; IV, 3 mg/kg single dose): 0.21 L/kg
- Vz_pred ([1]; PO, 10 mg/kg single dose): 0.16 L/kg
- microsomal CLint at 1 μM [2]: < 8.6 µL/min/mg
- half-life at 1 μM [2]: > 2.42 h

Compound: [2H]Cc1nc(C(=O)NCC(=O)O)c(O)c2ccc(Oc3ccccc3)cc12 [Compound 13, N-[(4-hydroxy-1-d-methyl-7-phenoxy-3-isoquinolinyl)carbonyl] glycine]
- microsomal CLint at 1 μM [3]: < 8.6 µL/min/mg
- half-life at 1 μM [3]: > 2.42 h
- microsomal CLint at 1 μM [2]: < 8.6 µL/min/mg
- half-life at 1 μM [2]: > 2.42 h

Compound: [2H]c1cc([2H])c(Oc2ccc3c(O)c(C(=O)NCC(=O)O)nc(C)c3c2)c([2H])c1 [Compound 23]
- microsomal CLint at 1 μM [3]: < 8.6 µL/min/mg
- half-life at 1 μM [3]: > 2.42 h
- microsomal CLint at 1 μM [2]: < 8.6 µL/min/mg
- half-life at 1 μM [2]: > 2.42 h

Compound: [2H]c1c([2H])c([2H])c(Oc2ccc3c(O)c(C(=O)NCC(=O)O)nc(C)c3c2)c([2H])c1[2H] [Compound 32, N-[(4-hydroxy-1-methyl-7-(d5-phenoxy)-3-isoquinolinyl)carbonyl] glycine]
- microsomal CLint at 1 μM [3]: < 8.6 µL/min/mg
- half-life at 1 μM [3]: > 2.42 h
- AUC(0-inf) ([1]; IV, 3 mg/kg single dose): 55.9 µg·h/mL
- AUC(0-t) ([1]; IV, 3 mg/kg single dose): 55.9 µg·h/mL
- Tmax ([1]; IV, 3 mg/kg single dose): 0.75 h
- MRT inf ([1]; IV, 3 mg/kg single dose): 3.14 h
- AUC(0-inf) ([1]; PO, 10 mg/kg single dose): 185 µg·h/mL
- AUC(0-t) ([1]; PO, 10 mg/kg single dose): 185 µg·h/mL
- Tmax ([1]; PO, 10 mg/kg single dose): 0.83 h
- MRT inf ([1]; PO, 10 mg/kg single dose): 5.33 h
- F [1]: 99.05%
- half-life ([1]; iv, 3 mg/kg): 2.49 h
- half-life ([1]; po, 10 mg/kg): 2.43 h
- Cmax ([1]; IV, 3 mg/kg single dose): 12200 ng/mL
- Cmax ([1]; PO, 10 mg/kg single dose): 17700 ng/mL
- Vz_pred ([1]; IV, 3 mg/kg single dose): 0.18 L/kg
- Vz_pred ([1]; PO, 10 mg/kg single dose): 0.21 L/kg
- microsomal CLint at 1 μM [2]: < 8.6 µL/min/mg
- half-life at 1 μM [2]: > 2.42 h

Compound: [2H]C([2H])(NC(=O)c1nc(C([2H])([2H])[2H])c2cc(Oc3ccccc3)ccc2c1O)C(=O)O [Compound 36, N-[(4-hydroxy-1-(d3-methyl)-7-phenoxy-3-isoquinolinyl)carbonyl]-2,2-d2-glycine]
- microsomal CLint at 1 μM [3]: < 8.6 µL/min/mg
- half-life at 1 μM [3]: > 2.42 h
- microsomal CLint at 1 μM [2]: < 8.6 µL/min/mg
- half-life at 1 μM [2]: > 2.42 h

Compound: [2H]c1cccc(Oc2ccc3c(O)c(C(=O)NCC(=O)O)nc(C)c3c2)c1 [Compound 46, N-[(4-hydroxy-1-methyl-7-(3-d-phenoxy)-3-isoquinolinyl)carbonyl]glycine]
- microsomal CLint at 1 μM [3]: < 8.6 µL/min/mg
- half-life at 1 μM [3]: > 2.42 h
- microsomal CLint at 1 μM [2]: < 8.6 µL/min/mg
- half-life at 1 μM [2]: > 2.42 h

Compound: [2H]c1cc([2H])c(Oc2ccc3c(O)c(C(=O)NC([2H])([2H])C(=O)O)nc(C)c3c2)c([2H])c1 [Compound 47]
- microsomal CLint at 1 μM [3]: < 8.6 µL/min/mg
- half-life at 1 μM [3]: > 2.42 h
- microsomal CLint at 1 μM [2]: < 8.6 µL/min/mg
- half-life at 1 μM [2]: > 2.42 h

Compound: [2H]c1c([2H])c([2H])c(Oc2ccc3c(O)c(C(=O)NC([2H])([2H])C(=O)O)nc(C)c3c2)c([2H])c1[2H] [Compound 48, N-[(4-hydroxy-1-methyl-7-(d5-phenoxy))-3-(3-isoquinolinyl)carbonyl]-2,2-d2-glycine]
- microsomal CLint at 1 μM [3]: < 8.6 µL/min/mg
- half-life at 1 μM [3]: > 2.42 h
- microsomal CLint at 1 μM [2]: < 8.6 µL/min/mg
- half-life at 1 μM [2]: > 2.42 h

Compound: [2H]c1cccc(Oc2ccc3c(O)c(C(=O)NC([2H])([2H])C(=O)O)nc(C)c3c2)c1 [Compound 49, N-[(4-hydroxy-1-methyl-7-(3-d-phenoxy)-3-isoquinolinyl)carbonyl]-2,2-d2-glycine]
- microsomal CLint at 1 μM [3]: < 8.6 µL/min/mg
- half-life at 1 μM [3]: > 2.42 h
- AUC(0-inf) ([1]; IV, 3 mg/kg single dose): 49.5 µg·h/mL
- AUC(0-t) ([1]; IV, 3 mg/kg single dose): 49.4 µg·h/mL
- Tmax ([1]; IV, 3 mg/kg single dose): 0.08 h
- MRT inf ([1]; IV, 3 mg/kg single dose): 2.85 h
- AUC(0-inf) ([1]; PO, 10 mg/kg single dose): 222 µg·h/mL
- AUC(0-t) ([1]; PO, 10 mg/kg single dose): 218 µg·h/mL
- Tmax ([1]; PO, 10 mg/kg single dose): 2.67 h
- MRT inf ([1]; PO, 10 mg/kg single dose): 5.83 h
- F [1]: 132.44%
- half-life ([1]; iv, 3 mg/kg): 2.89 h
- half-life ([1]; po, 10 mg/kg): 3.33 h
- Cmax ([1]; IV, 3 mg/kg single dose): 19500 ng/mL
- Cmax ([1]; PO, 10 mg/kg single dose): 25400 ng/mL
- Vz_pred ([1]; IV, 3 mg/kg single dose): 0.25 L/kg
- Vz_pred ([1]; PO, 10 mg/kg single dose): 0.24 L/kg
- microsomal CLint at 1 μM [2]: < 8.6 µL/min/mg
- half-life at 1 μM [2]: > 2.42 h

Compound: Cc1nc(C(=O)NCC(=O)O)c(O)c2ccc(Oc3ccccc3)cc12 [FG-4592, reference compound]
- microsomal CLint at 1 μM [3]: < 8.6 µL/min/mg
- half-life at 1 μM [3]: > 2.42 h
- AUC(0-inf) ([1]; IV, 3 mg/kg single dose): 63.8 µg·h/mL
- AUC(0-t) ([1]; IV, 3 mg/kg single dose): 63.8 µg·h/mL
- Tmax ([1]; IV, 3 mg/kg single dose): 0.08 h
- MRT inf ([1]; IV, 3 mg/kg single dose): 2.82 h
- AUC(0-inf) ([1]; PO, 10 mg/kg single dose): 196 µg·h/mL
- AUC(0-t) ([1]; PO, 10 mg/kg single dose): 196 µg·h/mL
- Tmax ([1]; PO, 10 mg/kg single dose): 2.83 h
- MRT inf ([1]; PO, 10 mg/kg single dose): 5.03 h
- F [1]: 92.21%
- half-life ([1]; iv, 3 mg/kg): 2.08 h
- half-life ([1]; po, 10 mg/kg): 2.78 h
- Cmax ([1]; IV, 3 mg/kg single dose): 21100 ng/mL
- Cmax ([1]; PO, 10 mg/kg single dose): 22100 ng/mL
- Vz_pred ([1]; IV, 3 mg/kg single dose): 0.15 L/kg
- Vz_pred ([1]; PO, 10 mg/kg single dose): 0.20 L/kg
- microsomal CLint at 1 μM [2]: < 8.6 µL/min/mg
- half-life at 1 μM [2]: > 2.42 h

Compound: N-[(4-hydroxy-1-(d-methyl)-7-phenoxy-3-isoquinolinyl) carbonyl]-2,2-d2-glycine [Compound 34]
- CLint in rat liver microsomes [2]: <8.6 µL/min/mg
- t1/2 in rat liver microsomes [2]: >2.42 h
